Assay results published in DBAASP.
Converted amounts (≈) assume the structure as drawn. Each block holds one compound with its values, some of them ahead of it.

Experiments:
Experiment in all cases: ≥ marks a high value that may be exact or a test limit, other limits are often not marked, values filed in µg/mL are converted to µM
[1] = system: Acinetobacter baumannii Q12-0809
[2] = system: Acinetobacter baumannii Q13-0717
[3] = system: Campylobacter jejuni NCTC 11351
Campylobacter jejuni = system: Campylobacter jejuni
[4] = system: Enterococcus faecalis JH-2-2
Escherichia coli K-12 = system: Escherichia coli K-12
Escherichia coli = system: Escherichia coli
[5] = system: Klebsiella pneumoniae ATCC 700603
[6] = system: Klebsiella pneumoniae NCTC 13442
[7] = system: Klebsiella pneumoniae Q14-0095
[8] = system: Klebsiella pneumoniae Q14-0285
[9] = system: Listeria monocytogenes NCTC 11994
[10] = system: Pseudomonas aeruginosa ATCC 27853
[11] = system: Pseudomonas aeruginosa PAO1
[12] = system: Pseudomonas aeruginosa Q12-0535
[13] = system: Pseudomonas aeruginosa Q14-0208
[14] = system: Pseudomonas aeruginosa Q14-0890
[15] = system: Salmonella typhimurium SL1344
[16] = system: Staphylococcus aureus ATCC 29213
[17] = system: Staphylococcus aureus MRSA-15
[18] = system: Staphylococcus aureus NCTC 12493
[19] = system: Staphylococcus aureus Q14-0320
[20] = system: Staphylococcus aureus Q14-0325
[21] = system: Staphylococcus aureus RN4220
[22] = system: Escherichia coli ATCC 25922
[23] = system: Escherichia coli CCARM 1229
[24] = system: Escherichia coli CCARM 1238
[25] = system: Listeria monocytogenes KCTC 3710
[26] = system: Pseudomonas aeruginosa 3592
[27] = system: Pseudomonas aeruginosa 5018
[28] = system: Salmonella typhimurium CCARM 8009
[29] = system: Salmonella typhimurium CCARM 8013
[30] = system: Salmonella typhimurium KCTC 1926
[31] = system: Staphylococcus aureus ATCC 25923
[32] = system: Staphylococcus aureus CCARM 3114
[33] = system: Staphylococcus aureus CCARM 3709
[34] = system: Bacillus cereus ATCC 11778
[35] = system: Salmonella enterica subsp. enterica serovar Enteritidis ATCC 13076
[36] = system: Serratia marcescens ATCC 21202
[37] = system: Streptococcus pyogenes ATCC 19615
[38] = system: Listeria monocytogenes ATCC 19112
[39] = system: Pseudomonas aeruginosa ATCC 15442
[40] = system: Bacillus subtilis ATCC 6633
[41] = system: Klebsiella pneumoniae H507
[42] = system: Listeria monocytogenes ATCC 19115
[43] = system: Salmonella enterica subsp. enterica serovar Enteritidis CVCC 3377
[44] = system: Streptococcus suis CVCC 606

MIC [1]: 13.9 µM (≈ 32 µg/mL)
MIC [2]: 27.7 µM (≈ 64 µg/mL)
MIC [3]: ≥ 55.4 µM
MIC (Campylobacter jejuni): ≥ 55.4 µM
MIC [4]: 27.7 µM (≈ 64 µg/mL)
MIC (Escherichia coli K-12): 27.7 µM (≈ 64 µg/mL)
MIC (Escherichia coli): > 55.4 µM
MIC [5]: 55.4 µM (≈ 128 µg/mL)
MIC [6]: ≥ 55.4 µM
MIC [7]: ≥ 55.4 µM
MIC [8]: ≥ 55.4 µM
MIC [9]: 27.7 µM (≈ 64 µg/mL)
MIC [10]: > 55.4 µM
MIC [11]: 13.9 µM (≈ 32 µg/mL)
MIC [12]: ≥ 55.4 µM
MIC [13]: 27.7 µM (≈ 64 µg/mL)
MIC [14]: 13.9 µM (≈ 32 µg/mL)
MIC [15]: 13.9 µM (≈ 32 µg/mL)
MIC [16]: 55.4 µM (≈ 128 µg/mL)
MIC [17]: 27.7 µM (≈ 64 µg/mL)
MIC [18]: 13.9 µM (≈ 32 µg/mL)
MIC [19]: ≥ 55.4 µM
MIC [20]: ≥ 55.4 µM
MIC [21]: 27.7 µM (≈ 64 µg/mL)
Structure (SMILES): CC(C)C[C@H](NC(=O)[C@H](CO)NC(=O)[C@H](CO)NC(=O)[C@H](CO)NC(=O)[C@H](CCCN=C(N)N)NC(=O)[C@@H](NC(=O)[C@H](CCCN=C(N)N)NC(=O)[C@H](Cc1c[nH]c2ccccc12)NC(=O)[C@H](CS)NC(=O)[C@H](CC(N)=O)NC(=O)[C@H](CCCN=C(N)N)NC(=O)[C@H](Cc1ccccc1)NC(=O)[C@H](C)NC(=O)[C@H](CCCCN)NC(=O)[C@H](Cc1c[nH]c2ccccc12)NC(=O)[C@H](CCCN=C(N)N)NC(=O)[C@H](Cc1c[nH]c2ccccc12)NC(=O)[C@H](C)N)C(C)C)C(=O)O [AWRWKAFRNCWRVRSSSL]

MIC [22]: > 32 µM
MIC [23]: ≥ 32 µM
MIC [24]: ≥ 32 µM
MIC [25]: ≥ 32 µM
MIC [26]: ≥ 32 µM
MIC [27]: ≥ 32 µM
MIC [10]: > 32 µM
MIC [28]: ≥ 32 µM
MIC [29]: ≥ 32 µM
MIC [30]: ≥ 32 µM
MIC [31]: > 32 µM
MIC [32]: ≥ 32 µM
MIC [33]: ≥ 32 µM
Structure (SMILES): CC[C@H](C)[C@H](NC(=O)CN)C(=O)N[C@@H](Cc1cnc[nH]1)C(=O)N[C@@H](Cc1cnc[nH]1)C(=O)N[C@H](C(=O)N[C@@H](CC(C)C)C(=O)N[C@@H](CCCCN)C(=O)N[C@@H](Cc1ccc(O)cc1)C(=O)NCC(=O)N[C@@H](CCCCN)C(=O)N1CCC[C@H]1C(=O)N[C@@H](CO)C(=O)O)[C@@H](C)CC [GIHHILKYGKPS]

MIC [34]: ≥ 37.9 µM
MIC [22]: > 37.9 µM
MIC [5]: > 37.9 µM
MIC [10]: > 37.9 µM
MIC [35]: ≥ 37.9 µM
MIC [36]: ≥ 37.9 µM
MIC [16]: > 37.9 µM
MIC [37]: ≥ 37.9 µM
Structure (SMILES): CC[C@H](C)[C@H](N)C(=O)N[C@H](C(=O)N1CCC[C@H]1C(=O)N[C@@H](CC(C)C)C(=O)N1CCC[C@H]1C(=O)N[C@@H](CC(C)C)C(=O)NCC(=O)N[C@@H](Cc1ccc(O)cc1)C(=O)N[C@@H](Cc1ccccc1)C(=O)N[C@@H](C)C(=O)N[C@@H](CCCCN)C(=O)N[C@@H](CCCCN)C(=O)N[C@@H](CCCCN)C(=O)N[C@@H](CCCCN)C(=O)N[C@@H](CCCCN)C(=O)N[C@@H](CCCCN)C(=O)N[C@@H](CC(=O)O)C(=O)N1CCC[C@H]1C(=O)N[C@H](C(=O)N1CCC[C@H]1C(=O)N[C@@H](CC(C)C)C(=O)N[C@@H](CC(=O)O)C(=O)N[C@@H](CCC(N)=O)C(=O)O)C(C)C)[C@@H](C)CC [IIPLPLGYFAKKKKKKDPVPLDQ]

MIC [38]: 31.2 µM (≈ 64 µg/mL)
MIC [39]: 13 µM (≈ 26.7 µg/mL)
Structure (SMILES): CC[C@H](C)[C@H](NC(=O)[C@H](CO)NC(=O)[C@@H](N)CC(C)C)C(=O)N[C@@H](CCCN=C(N)N)C(=O)N[C@@H](CCCN=C(N)N)C(=O)N[C@@H](CC(C)C)C(=O)N[C@@H](CC(C)C)C(=O)N[C@@H](C)C(=O)N[C@@H](C)C(=O)NCC(=O)N[C@H](C(=O)N[C@@H](CC(C)C)C(=O)N[C@@H](CCCCN)C(=O)N[C@@H](CCC(N)=O)C(=O)N[C@H](C(=O)N[C@@H](CCCCN)C(=O)NCC(=O)N[C@H](C(=O)NCC(=O)N[C@@H](C)C(=O)O)C(C)C)[C@@H](C)O)C(C)C [LSIRRLLAAGVLKQTKGVGA]

MIC [40]: 7.95 µM (≈ 25 µg/mL)
MIC [22]: 0.986 µM (≈ 3.1 µg/mL)
MIC [41]: 7.95 µM (≈ 25 µg/mL)
MIC [42]: 3.97 µM (≈ 12.5 µg/mL)
MIC [10]: 3.97 µM (≈ 12.5 µg/mL)
MIC [43]: 2 µM (≈ 6.3 µg/mL)
MIC [31]: 0.986 µM (≈ 3.1 µg/mL)
MIC [44]: 0.986 µM (≈ 3.1 µg/mL)
Structure (SMILES): CC[C@H](C)[C@H](NC(=O)[C@H](Cc1ccccc1)NC(=O)[C@H](CC(=O)O)NC(=O)[C@H](CCCCN)NC(=O)[C@H](CCCCN)NC(=O)[C@H](CCC(=O)O)NC(=O)[C@H](Cc1c[nH]c2ccccc12)NC(=O)[C@@H](NC(=O)[C@@H](NC(=O)[C@H](CCCCN)NC(=O)[C@@H](NC(=O)[C@H](CCCCN)NC(=O)[C@H](CCCN=C(N)N)NC(=O)[C@H](CCCN=C(N)N)NC(=O)[C@H](CCSC)NC(=O)[C@@H](NC(=O)[C@H](CCCN=C(N)N)NC(=O)[C@H](CCSC)NC(=O)[C@@H](N)CCSC)C(C)C)[C@@H](C)O)C(C)C)[C@@H](C)CC)C(=O)NCC(=O)N[C@@H](CC(C)C)C(=O)N[C@@H](Cc1ccc(O)cc1)C(=O)N[C@@H](CO)C(=O)N[C@H](C(=O)N[C@@H](CC(=O)O)C(=O)O)[C@@H](C)CC [MMRVMRRKTKVIWEKKDFIGLYSID]
